Results on one compound are retold here after article PMC7778606, “Development of the phenylpyrazolo[3,4-d]pyrimidine-based, insulin-like growth factor receptor/Src/AXL-targeting small molecule kinase inhibitor” (Theranostics, 2021).

Like-named read-outs stand apart in the source and are kept apart here.

One data set has as its system H460/PmR cells. The data set can be described thus: MTT assay, viability of pemetrexed-resistant H460/PmR cells. The data set is classed as cell-based. Particulars: Homo sapiens, NCI-H460, 72 h, three days, read-out: IC50 against the viability. An excerpt:
(§1) Human lung cancer cell lines (A549, H1299, H1993, H1944, H226B, H226Br, H460, H522, HCC15, and PC9), a diploid human lung fibroblast cell line (Wi38), and the Lewis lung carcinoma (LLC) cell line were purchased from the American Type Culture Collection (ATCC, Manassas, VA, USA) or kindly provided by Dr. John V. Heymach (MD Anderson Cancer Center, Houston, TX, USA). Human retinal pigment epithelial (RPE) cells were kindly provided by Dr. Jeong Hun Kim (College of Medicine, Seoul National University, Seoul, Republic of Korea). HT-22 cells were provided by Dr. Dong Gyu Jo (College of Pharmacy, Sungkyunkwan University, Suwon, Republic of Korea). Lung cancer cells were cultured in RPMI 1640 medium supplemented with 10% fetal bovine serum (FBS) and antibiotics (Welgene, Gyeongsan-si, Republic of Korea). LLC, HT-22, and Wi38 cells were maintained in DMEM supplemented with 10% FBS and antibiotics. RPE cells were maintained in DMEM/F12 supplemented with 10% FBS and antibiotics. […]
(§2) Cells were seeded into 96-well plates at a density of 1-2 × 10^3 cells/well and incubated for 24 h. […] The formazan products were dissolved in dimethyl sulfoxide (DMSO), and the absorbance was measured at 570 nm. […]
A general note: Tetrazolium assays rely on reduction of a dye to a coloured formazan, in cell work by metabolically active cells.

Data set [1] can be described thus: Pharmacokinetic study in rats. The format is in vivo, SD rats. The method, then:
The pharmacokinetic properties of LL6 were investigated in SD rats (n = 3). The left femoral artery and vein were catheterized with polyethylene tube (Intramedic^TM PE-50; Becton-Dickinson Diagnostics, MD, USA) under Zoletil (Virbac, Carros, France) anesthesia (50 mg/kg, intramuscular injection). LL6 was dissolved in DMSO/PEG 400/normal saline mixture (35:35:30, v/v/v) and single dose solution (1 mg/kg) was administered to rat intravenously. Approximately 150 µL of blood samples were collected via femoral artery at predetermined time (1, 3, 5, 10, 15, 30, 60, 120 and 180 min) and equivalent volume of normal saline solution with 20 U/mL of heparin was replenished to prevent blood coagulation. After centrifugation of the sample at 16,000 × g for 5 min, 50 µL aliquot of plasma samples were stored at -20 °C until HPLC-MS/MS analysis. The Pharmacokinetic parameters, including terminal half-life (T½), area under the plasma concentration-time curve from time zero to time last (AUClast), area under the plasma concentration-time curve from time zero to time infinity (AUCinf), volume of distribution at steady-state (Vss) and mean residence time (MRT) were calculated using non-compartmental analysis (WinNonlin, version 3.1, NCA 201; Pharsight, Mountain View, CA, USA).

The test system of another data set is PC9/ER cells. The data set can be described thus: MTT assay, viability of erlotinib-resistant PC9/ER cells. The format is cell-based. Particulars: Homo sapiens, PC-9/ER, 48 h, two days, 5% FBS, read-out: IC50 against the viability.
Source text: as §1, §2

Data set [2] concerns Kras^G12D/+-driven lung tumors. Nature of the data set: Mutant Kras-driven lung tumorigenesis model. The data set is classed as in vivo, Kras^G12D/+ transgenic mice. The method, then: All animal experiments were performed according to protocols approved by the Seoul National University Institutional Animal Care and Use Committee. Mice were fed standard mouse chow and water ad libitum and housed in temperature- and humidity-controlled facilities with a 12-h light/12-h dark cycle. For xenograft experiments, H1944 and A549 cells (1×10^6 cells/spot, diluted in equal amounts of PBS and Matrigel) were subcutaneously injected into the right flank of 6-week-old non-obese diabetic-severe combined immunodeficiency (NOD/SCID) mice. After the tumor volume reached 50-150 mm^3, the mice were randomly grouped and treated with vehicle [10% DMSO in 60% polyethylene glycol (PEG) 400 solution] or LL6 (80 mg/kg) 6 days per week for 2 weeks. Tumor growth was determined by measuring the short and long diameters of the tumor with a caliper, and body weight was measured once or twice per week to monitor toxicity. Additionally, to evaluate the effect of LL6 on mutant Kras-driven lung tumorigenesis, 2-month-old Kras^G12D/+ transgenic mice were randomized and treated with vehicle or LL6 (80 mg/kg) for 8 weeks. The mice were euthanized, and tumor formation was evaluated and compared with that of the vehicle-treated control group. Microscopic evaluations of the H&E-stained lung tissue were also performed to measure mean tumor number (N) and volume (V) in a blinded fashion. The number and size of tumors were calculated in five sections uniformly distributed throughout each lung. In both animal experiments, the tumor volume and burden of each sample were calculated using the following formulas: Tumor volume (mm^3) = (short diameter)^2 × (long diameter) × 0.5; Tumor burden (mm^3) = number of tumors × the average of tumor volume.
Sections derived from formalin-fixed and paraffin-embedded murine lung tissues were deparaffinized by incubation overnight at 65 °C, followed by rehydration in sequential xylene and ethanol rinses. After incubation with hydrogen peroxide, the slides were washed with PBS and then incubated with 0.3% Triton X-100. The sections were incubated with blocking solution (Dako Protein Block, Dako, Glostrup, Denmark) for 30 min at room temperature after washing with PBS. The sections were further incubated with primary antibodies (pAXL, pIGF-1R, and pSrc, diluted at 1:200) overnight at 4 °C, washed with PBS several times, incubated with the corresponding biotinylated secondary antibodies (diluted at 1:500), and then washed with PBS multiple times. After adding avidin-biotin complexes (Vector Laboratories, Burlingame, CA, USA), the sections were visualized using diaminobenzidine detection reagent (Enzo Life Sciences, Farmingdale, NY, USA) and mounted with a mounting solution (Vector Laboratories).

Setting [3] is: SD, rat, plasma, rats, intravenous, 1 mg/kg.

Regarding `Nc1ncnc2c1c(-c1ccc(Cl)cc1)nn2CCn1cc(COc2ccc(Nc3nccc(Nc4cnc5ccccc5c4)n3)cc2)nn1` [LL6], in the data set with H460/PmR cells, the IC50 worked out at 3.64 µM. In data set [1] (SD, rat, plasma, 1 mg/kg, rats, intravenous, read-out: theoretical initial plasma concentration), the C0 is 33.3 µM. In data set [1] (setting [3]), this compound showed a total exposure AUC(0-inf) of 852 ng·h/mL, an area under the curve AUC(0-t) of 850 ng·h/mL, an MRT of 20.3 min and a clearance of 19.3 ± 1.2 mL/min/kg. The compound further displayed a half-life in data set [1] (setting [3]) of 29.1 ± 10 min. Further, in data set [1] (SD, rat, plasma, rats, intravenous, 1 mg/kg, read-out: C0 (theoretical initial plasma concentration)), the C0 came to 22700 ng/mL. Also, the Vd in data set [1] (SD, rat, plasma, rats, intravenous, 1 mg/kg, read-out: Vss) worked out at 0.392 ± 0.186 L/kg. The elimination in plasma result in data set [1] (rats, intravenous) is listed as “rapid”. Besides, the oral bioavailability entry in data set [1] (suggested by the pharmacokinetic study) is listed as “poor”. Besides, the concentration for half-maximal inhibition (IC50) with PC9/ER cells came to 8.61 µM. In addition, the “tumor volume and burden” value in data set [2] (80 mg/kg for 8 weeks) is given as “Substantial decreases”. In addition, in data set [2] (80 mg/kg for 8 weeks, especially nodules > 1 mm^3), the “lung tumor nodules (multiplicity)” value is reported as “significantly decreased”. In data set [2] (80 mg/kg for 8 weeks, vs vehicle), the body weight entry is reported as “no detectable difference”. For the same compound, in data set [2] (immunohistochemistry, 80 mg/kg, vs vehicle), the “levels of pIGF-1R, pSrc, and pAXL in lung tumors” value is “significantly decreased levels”.

Broadly, the IC50 is the concentration needed to halve the response being measured. Broadly, the AUC(0-inf) is the area under the concentration-time curve extrapolated to infinity. The low end stands for low exposure, the high end for high exposure. Broadly, the AUC(0-t) is the area under the concentration-time curve up to a stated or last time point. The low end stands for less exposure, the high end for more exposure. By MRT is commonly meant the average time that molecules of a dose stay in the body. As usually defined, the clearance is the volume of plasma or blood freed of the substance per unit of time. Low readings indicate a low capacity for elimination, high ones a high capacity for elimination. By half-life is commonly meant how long it takes for the measured level to halve. A higher half-life goes with slow loss.
